For 1 compound, inhibition in vivo and IC50 results are on record in patent EP1019392B1, “TRICYCLIC AMIDES USEFUL FOR INHIBITION OF G-PROTEIN FUNCTION AND FOR TREATMENT OF PROLIFERATIVE DISEASES” (SCHERING CORPORATION, priority 1995, dated 1997).

The structures appear in SMILES notation.

In experiment [1] the test system is DLD-1 (human colon carcinoma cells, ATCC # CCL 221). Nature of the experiment: In Vivo Anti-Tumor Studies, subcutaneous DLD-1 tumors. Details: species or system athymic nu/nu female mice. The note with it: Mus musculus, DLD-1, po, QID, 4 weeks, range over the listed compounds. The text has this:
Tumor cells (5 X 10^5 to 8 X 10^6) of DLD-1 (human colon carcinoma cells, ATCC # CCL 221) are innolculated subcutaneously into the flank of 5-6 week o;d athymic nu/nu female mice.

For experiment [2], the system named is Ras-CVLS processing in COS monkey kidney cells. Description: COS cell assay: inhibition of Ras-CVLS processing (Western blot). It counts as cell-based. As to conditions: Primates, COS. Background: In western blotting, separated proteins are transferred to a membrane and probed.
Experiment [3] has as its system DLD-1-BAG human colon carcinoma cells expressing as activated K-ras gene. Description: Cell Mat Assay, DLD-1 tumor cells. It counts as cell-based. As to conditions: Homo sapiens, DLD-1, Mat assay.
The subject of experiment [4] is Human tumor cells. Description: Soft Agar Assay (anchorage-independent growth). It counts as cell-based. As to conditions: range over 19 tumor cell lines (K ras NIH 3T3, H ras NIH 3T3, HTB 177, HTB 173, A549, HTB 175, HTB 119, HTB 183, HPAF II, MCF-7, HBL100, Du4475, MDA MB 468, DU 145, MDA MB453, BT474, PC3, DLD I, AsPc-1), read-out: IC50 for each cell line.
Experiment [5] has as its system Normal human HEPM fibroblasts. Description: Cell Mat Assay, normal cell mat. It counts as cell-based. The note with it: normal monolayer.
Experiment [6] has as its system T24-BAG4 human bladder carcinoma cells expressing an activated H-ras gene. Description: Cell Mat Assay, T24 tumor cells. It is filed as cell-based. The note with it: Homo sapiens, read-out: Tumor (T-24) IC50.
Experiment [7] relates to SW620-BAG human colon carcinoma cells expressing an activated K-ras gene. Description: Cell Mat Assay, SW620 tumor cells. It is filed as cell-based. As to conditions: Homo sapiens, SW-620, Mat assay.

The term inhibition in vivo denotes how much of the control response was suppressed. The term IC50 denotes the concentration at which inhibition is half-maximal. With `NC(=O)N1CCC(CC(=O)N2CCC(C3c4ncc(Br)cc4CCc4cc(Cl)cc(Br)c43)CC2)CC1` (centres unmarked) [Example 10], in experiment [1] (10 mg/kg p.o.), the inhibition in vivo at 10 mg/kg lay within 7 to 50%. In experiment [1] (50 mg/kg p.o.), this compound registered an inhibition in vivo at 50 mg/kg of 35.4 to 83%. The IC50 in experiment [2] was < 25 nM; in experiment [3] it was < 1600 nM; in experiment [4] it was 40 to 3000 nM; in experiment [5], > 25000 nM; in experiment [6], < 1600 nM; in experiment [7], 3100 nM.
